Source: ChEMBL document CHEMBL1201862, “PubChem BioAssay data set” (2004)
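1) Cells in 96-well plates. 2) Compound, 48 h, 5 concentrations. 3) Linear interpolation between surrounding doses. 4) Unreached endpoint = highest concentration. GI50 marks 50% less growth.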 The source made the active and inactive calls. No stated cut-off is given here; in the data, active = GI50 up to about 1.1 µM and inactive = higher.

Legend:
Test in all cases: NCI-60 cell line screen, 48 h
786-0 = tested on: 786-0
A498 = tested on: A498
A549 = tested on: A549
ACHN = tested on: ACHN
BT-549 = tested on: BT-549
CAKI-1 = tested on: CAKI-1
COLO 205 = tested on: COLO 205
DU-145 = tested on: DU-145
EKVX = tested on: EKVX
HCC 2998 = tested on: HCC 2998
HCT-116 = tested on: HCT-116
HCT-15 = tested on: HCT-15
HL-60 = tested on: HL-60
HOP-62 = tested on: HOP-62
HOP-92 = tested on: HOP-92
HT-29 = tested on: HT-29
Hs-578T = tested on: Hs-578T
IGROV-1 = tested on: IGROV-1
K562 = tested on: K562
KM12 = tested on: KM12
LOX IMVI = tested on: LOX IMVI
M14 = tested on: M14
MCF7 = tested on: MCF7
MDA-MB-231 = tested on: MDA-MB-231
MDA-MB-435 = tested on: MDA-MB-435
MDA-N = tested on: MDA-N
MOLT-4 = tested on: MOLT-4
NCI-H226 = tested on: NCI-H226
NCI-H23 = tested on: NCI-H23
NCI-H460 = tested on: NCI-H460
NCI-H522 = tested on: NCI-H522
NCI/ADR-RES = tested on: NCI/ADR-RES
OVCAR-3 = tested on: OVCAR-3
OVCAR-4 = tested on: OVCAR-4
OVCAR-5 = tested on: OVCAR-5
OVCAR-8 = tested on: OVCAR-8
PC-3 = tested on: PC-3
RPMI-8226 = tested on: RPMI-8226
RXF 393 = tested on: RXF 393
SF-268 = tested on: SF-268
SF-295 = tested on: SF-295
SF-539 = tested on: SF-539
SK-MEL-28 = tested on: SK-MEL-28
SK-MEL-2 = tested on: SK-MEL-2
SK-MEL-5 = tested on: SK-MEL-5
SK-OV-3 = tested on: SK-OV-3
SN12C = tested on: SN12C
SNB-19 = tested on: SNB-19
SNB-75 = tested on: SNB-75
SR = tested on: SR
SW-620 = tested on: SW-620
T47D = tested on: T47D
TK-10 = tested on: TK-10
U-251 = tested on: U-251
UACC-257 = tested on: UACC-257
UACC-62 = tested on: UACC-62
UO-31 = tested on: UO-31
CCRF-CEM = tested on: CCRF-CEM
Malme-3M = tested on: Malme-3M

Q: How did the GI50 (786-0) turn out when COc1ccc(C2SCC(=O)N2NC(=O)C(C)Oc2ccc(Cl)cc2Cl)cc1 (stereo not given) was run?
A: 20.3 µM (inactive)

Q: And the GI50 (A498)?
A: 25 µM (inactive)

Q: And the GI50 (A549)?
A: 31.6 µM (inactive)

Q: What about the GI50 (ACHN) of the same molecule?
A: 72.3 µM (inactive)

Q: And the GI50 (BT-549)?
A: 23.7 µM (inactive)

Q: And the GI50 (CAKI-1)?
A: 21.8 µM (inactive)

Q: What about the GI50 (COLO 205) of the same molecule?
A: 73.8 µM (inactive)

Q: What about the GI50 (DU-145) of the same molecule?
A: 53 µM (inactive)

Q: And the GI50 (EKVX)?
A: 60 µM (inactive)

Q: What about the GI50 (HCC 2998) of the same molecule?
A: 55.6 µM (inactive)

Q: What about the GI50 (HCT-116) of the same molecule?
A: 36.6 µM (inactive)

Q: What about the GI50 (HCT-15) of the same molecule?
A: > 100 µM

Q: What about the GI50 (HL-60) of the same molecule?
A: 14.2 µM (inactive)

Q: And the GI50 (HOP-62)?
A: 20.6 µM (inactive)

Q: What about the GI50 (HOP-92) of the same molecule?
A: 21.1 µM (inactive)

Q: And the GI50 (HT-29)?
A: > 100 µM (inactive)

Q: And the GI50 (Hs-578T)?
A: 34.5 µM (inactive)

Q: What about the GI50 (IGROV-1) of the same molecule?
A: 37 µM (inactive)

Q: What about the GI50 (K562) of the same molecule?
A: 27 µM (inactive)

Q: What about the GI50 (KM12) of the same molecule?
A: 55.1 µM (inactive)

Q: And the GI50 (LOX IMVI)?
A: 41.1 µM (inactive)

Q: What about the GI50 (M14) of the same molecule?
A: 51.2 µM (inactive)

Q: What about the GI50 (MCF7) of the same molecule?
A: 32.1 µM (inactive)

Q: And the GI50 (MDA-MB-231)?
A: 26.7 µM (inactive)

Q: What about the GI50 (MDA-MB-435) of the same molecule?
A: 76.7 µM (inactive)

Q: What about the GI50 (MDA-N) of the same molecule?
A: 83 µM (inactive)

Q: And the GI50 (MOLT-4)?
A: 28.3 µM (inactive)

Q: And the GI50 (NCI-H226)?
A: 16.4 µM (inactive)

Q: And the GI50 (NCI-H23)?
A: 64.9 µM (inactive)

Q: And the GI50 (NCI-H460)?
A: 81.1 µM (inactive)

Q: And the GI50 (NCI-H522)?
A: 91.2 µM (inactive)

Q: What about the GI50 (NCI/ADR-RES) of the same molecule?
A: 56.6 µM (inactive)

Q: What about the GI50 (OVCAR-3) of the same molecule?
A: 66.2 µM (inactive)

Q: What about the GI50 (OVCAR-4) of the same molecule?
A: 23.6 µM (inactive)

Q: What about the GI50 (OVCAR-5) of the same molecule?
A: > 100 µM (inactive)

Q: What about the GI50 (OVCAR-8) of the same molecule?
A: 31.3 µM (inactive)

Q: And the GI50 (PC-3)?
A: 27.4 µM (inactive)

Q: What about the GI50 (RPMI-8226) of the same molecule?
A: 30.7 µM (inactive)

Q: And the GI50 (RXF 393)?
A: 25.6 µM (inactive)

Q: And the GI50 (SF-268)?
A: > 100 µM (inactive)

Q: What about the GI50 (SF-295) of the same molecule?
A: 36.1 µM (inactive)

Q: And the GI50 (SF-539)?
A: 17 µM (inactive)

Q: What about the GI50 (SK-MEL-28) of the same molecule?
A: 30.9 µM (inactive)

Q: What about the GI50 (SK-MEL-2) of the same molecule?
A: 50.2 µM (inactive)

Q: And the GI50 (SK-MEL-5)?
A: 46.5 µM (inactive)

Q: What about the GI50 (SK-OV-3) of the same molecule?
A: 49.2 µM (inactive)

Q: What about the GI50 (SN12C) of the same molecule?
A: 41.7 µM (inactive)

Q: And the GI50 (SNB-19)?
A: 35 µM (inactive)

Q: What about the GI50 (SNB-75) of the same molecule?
A: 22 µM (inactive)

Q: What about the GI50 (SR) of the same molecule?
A: < 0.01 µM (active)

Q: What about the GI50 (SW-620) of the same molecule?
A: > 100 µM (inactive)

Q: What about the GI50 (T47D) of the same molecule?
A: 28.4 µM (inactive)

Q: And the GI50 (TK-10)?
A: 42.6 µM (inactive)

Q: What about the GI50 (U-251) of the same molecule?
A: 33.7 µM (inactive)

Q: What about the GI50 (UACC-257) of the same molecule?
A: 42.4 µM (inactive)

Q: What about the GI50 (UACC-62) of the same molecule?
A: 33.9 µM (inactive)

Q: And the GI50 (UO-31)?
A: 88.5 µM (inactive)

Q: How did the GI50 (786-0) turn out when C[C@]12CC[C@H]3[C@@H](CCC4=CC(=O)CC[C@@H]43)[C@@H]1CC[C@@H]2OC1(O)C(=O)c2ccccc2C1=O was run?
A: 24.9 µM (inactive)

Q: What about the GI50 (A498) of the same molecule?
A: 48.5 µM (inactive)

Q: What about the GI50 (A549) of the same molecule?
A: > 100 µM (inactive)

Q: And the GI50 (ACHN)?
A: 27.7 µM (inactive)

Q: And the GI50 (BT-549)?
A: 66.8 µM (inactive)

Q: And the GI50 (CAKI-1)?
A: 80.2 µM (inactive)

Q: And the GI50 (CCRF-CEM)?
A: 31.4 µM (inactive)

Q: And the GI50 (COLO 205)?
A: 24.4 µM (inactive)

Q: And the GI50 (DU-145)?
A: 16.5 µM (inactive)

Q: What about the GI50 (EKVX) of the same molecule?
A: 0.352 µM (active)

Q: What about the GI50 (HCC 2998) of the same molecule?
A: > 100 µM (inactive)

Q: And the GI50 (HCT-116)?
A: 14.5 µM (inactive)

Q: What about the GI50 (HCT-15) of the same molecule?
A: 37.8 µM

Q: And the GI50 (HOP-62)?
A: 36.6 µM (inactive)

Q: What about the GI50 (HOP-92) of the same molecule?
A: > 100 µM (inactive)

Q: What about the GI50 (HT-29) of the same molecule?
A: 35.1 µM (inactive)

Q: What about the GI50 (Hs-578T) of the same molecule?
A: 11.2 µM (inactive)

Q: What about the GI50 (IGROV-1) of the same molecule?
A: 69.7 µM (inactive)

Q: What about the GI50 (K562) of the same molecule?
A: 35.3 µM (inactive)

Q: What about the GI50 (KM12) of the same molecule?
A: > 100 µM (inactive)

Q: What about the GI50 (LOX IMVI) of the same molecule?
A: 37.5 µM (inactive)

Q: What about the GI50 (M14) of the same molecule?
A: 44.6 µM (inactive)

Q: And the GI50 (MCF7)?
A: 30.8 µM (inactive)

Q: What about the GI50 (MDA-MB-231) of the same molecule?
A: 87.3 µM (inactive)

Q: What about the GI50 (MDA-MB-435) of the same molecule?
A: 32.7 µM (inactive)

Q: What about the GI50 (MDA-N) of the same molecule?
A: 17.6 µM (inactive)

Q: And the GI50 (MOLT-4)?
A: 33.3 µM (inactive)

Q: What about the GI50 (Malme-3M) of the same molecule?
A: 34 µM (inactive)

Q: And the GI50 (NCI-H226)?
A: > 100 µM (inactive)

Q: And the GI50 (NCI-H23)?
A: 27.1 µM (inactive)

Q: What about the GI50 (NCI-H460) of the same molecule?
A: 67 µM (inactive)

Q: And the GI50 (NCI-H522)?
A: 17.3 µM (inactive)

Q: What about the GI50 (NCI/ADR-RES) of the same molecule?
A: 63 µM (inactive)

Q: And the GI50 (OVCAR-3)?
A: 39.4 µM (inactive)

Q: And the GI50 (OVCAR-4)?
A: 91.4 µM (inactive)

Q: What about the GI50 (OVCAR-5) of the same molecule?
A: 27.6 µM (inactive)

Q: And the GI50 (OVCAR-8)?
A: 45.2 µM (inactive)

Q: And the GI50 (PC-3)?
A: 60.5 µM (inactive)

Q: What about the GI50 (RPMI-8226) of the same molecule?
A: 26.2 µM (inactive)

Q: What about the GI50 (RXF 393) of the same molecule?
A: 33.3 µM (inactive)

Q: And the GI50 (SF-268)?
A: 34.1 µM (inactive)

Q: And the GI50 (SF-295)?
A: > 100 µM (inactive)

Q: What about the GI50 (SF-539) of the same molecule?
A: 32.4 µM (inactive)

Q: And the GI50 (SK-MEL-28)?
A: > 100 µM (inactive)

Q: What about the GI50 (SK-MEL-2) of the same molecule?
A: 75.9 µM (inactive)

Q: What about the GI50 (SK-MEL-5) of the same molecule?
A: 19.5 µM (inactive)

Q: And the GI50 (SK-OV-3)?
A: > 100 µM (inactive)

Q: And the GI50 (SN12C)?
A: 17 µM (inactive)

Q: What about the GI50 (SNB-19) of the same molecule?
A: > 100 µM (inactive)

Q: And the GI50 (SNB-75)?
A: 56.9 µM (inactive)

Q: What about the GI50 (SR) of the same molecule?
A: 35.6 µM (inactive)

Q: And the GI50 (SW-620)?
A: 40.6 µM (inactive)

Q: And the GI50 (T47D)?
A: 36.7 µM (inactive)

Q: And the GI50 (TK-10)?
A: 32.5 µM (inactive)

Q: What about the GI50 (U-251) of the same molecule?
A: 48.8 µM (inactive)

Q: What about the GI50 (UACC-257) of the same molecule?
A: 28.5 µM (inactive)

Q: And the GI50 (UACC-62)?
A: 11.7 µM (inactive)

Q: What about the GI50 (UO-31) of the same molecule?
A: 26.2 µM (inactive)
